Experimental findings from paper PMC6950245, “Identification and Characterization of ShSPI, a Kazal-Type Elastase Inhibitor from the Venom of Scolopendra Hainanum” (Toxins, 2019) are described below.

Where a SMILES comes first, the peptide text is derived from it. Bridges are numbered along the chain shown (N, C = ends). A value given as a limit tells only on which side of the number the result lay.

For the test, the target named is T1, human neutrophil elastase (HNE) (Homo sapiens, UniProt P08246).
T1 construct: purchased Sigma-Aldrich E8140
T1 sequence (P08246 30-267): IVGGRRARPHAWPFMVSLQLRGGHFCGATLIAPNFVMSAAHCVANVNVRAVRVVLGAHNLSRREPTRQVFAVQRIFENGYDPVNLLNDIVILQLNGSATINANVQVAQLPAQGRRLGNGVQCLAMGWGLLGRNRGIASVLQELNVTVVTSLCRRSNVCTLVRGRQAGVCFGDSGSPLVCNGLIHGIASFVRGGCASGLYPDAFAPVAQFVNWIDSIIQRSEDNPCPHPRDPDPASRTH
As to the kind of experiment: Protease inhibition assay, human neutrophil elastase (chromogenic substrate, Dixon method). Format: biochemical. From the text: Human neutrophils elastase (HNE, E8140), porcine pancreatic elastase (PPE, E0127), cathepsin G (CG, C4428), human trypsin (T6424), α-chymotrypsin from human pancreas (C8946), and thrombin from human plasma (T4393) were all purchased from Sigma-Aldrich (USA). Factor Xa (FXa, HFXa 1011) and Factor XIIa (FXIIa, HFXIIa 1212a) were from Enzyme Research Laboratories (South Bend, IN, USA). Kallikrein from human plasma (420307) was from Merck Millipore (Billerica, MA, USA).
Substrate for HNE and PPE (MeOSuc-Ala-Ala-Pro-Val-pNA, 324696) was purchased from Merck Millipore (USA). Substrates for CG (Succinyl-Ala-Ala-Pro-Phe-pNA, 573462), trypsin (Nalpha-Benzoyl-L-arginine 4-nitroanilide hydrochloride, B3133), FXa (CH3OCO-D-CHA-Gly-Arg-pNA-AcOH, F3301), chymotrypsin (N-Succinyl-Gly-Gly-Phe-pNA, S1899), thrombin (β-Ala-Gly-Arg-pNA diacetate, T3068), and kallikrein (Z-Phe-Arg 7-amido-4-methylcoumarin hydrochloride, C9521) were purchased from Sigma-Aldrich (USA).
As mentioned in our previous study, experiments for protease inhibitory activity were assayed in buffer (0.05 M Tris-HCl, pH 7.8) at 37 °C. […] At the end of the incubation, the reaction was initiated by the addition of the exclusive substrate solution and monitored by recording the absorbance at 405 nm every 30 s for 30 min. Enzyme activity in each well was calculated based on the initial slope of the reaction curve, and percentage of the initial slope of the uninhibited reaction was expressed. The inhibition constant Ki value was determined according to the Dixon method.
As for `CC[C@H](C)[C@@H]1NC(=O)[C@H](C)NC(=O)[C@@H]2CCCN2C(=O)[C@@H]2CSSC[C@H](NC(=O)[C@H](CO)NC(=O)[C@H](CC(N)=O)NC(=O)[C@H](C)NC(=O)[C@H](Cc3ccc(O)cc3)NC(=O)[C@H](CCSC)NC(=O)[C@H](CCCNC(=N)N)NC(=O)CNC(=O)[C@H](Cc3ccccc3)NC(=O)[C@H](CCC(=O)O)NC(=O)[C@H](CC(=O)O)NC(=O)[C@H](Cc3ccccc3)NC(=O)[C@H](C(C)C)NC(=O)[C@@H]3CCCN3C(=O)[C@H](CCC(N)=O)NC(=O)[C@H](Cc3ccc(O)cc3)NC1=O)C(=O)N[C@@H](CCC(=O)O)C(=O)N[C@@H](CCSC)C(=O)N[C@@H](CCC(N)=O)C(=O)N[C@@H](CCCNC(=N)N)C(=O)N[C@@H](C)C(=O)N[C@@H](CCCNC(=N)N)C(=O)N[C@H](C(=O)N[C@@H](CC(C)C)C(=O)N[C@@H](CCCNC(=N)N)C(=O)NCC(=O)O)CSSC[C@H](N)C(=O)N1CCC[C@H]1C(=O)N[C@@H](CCC(N)=O)C(=O)N[C@@H](C(C)C)C(=O)N2` [S21A] (H-CPQVCPAIYQPVFDEFGRMYANSCEMQRARCLRG-OH; disulfide 1-31, 5-24), the Ki (as a rule, a measure of affinity in units of concentration, obtained from inhibition or displacement) worked out at 0.0168 µM. To `CC[C@H](C)[C@@H]1NC(=O)[C@H](C)NC(=O)[C@@H]2CCCN2C(=O)[C@@H]2CSSC[C@H](NC(=O)[C@H](CO)NC(=O)[C@H](CC(N)=O)NC(=O)[C@H](CO)NC(=O)[C@H](Cc3ccc(O)cc3)NC(=O)[C@H](CCSC)NC(=O)[C@H](CCCNC(=N)N)NC(=O)CNC(=O)[C@H](Cc3ccccc3)NC(=O)[C@H](CCC(=O)O)NC(=O)[C@H](CC(=O)O)NC(=O)[C@H](Cc3ccccc3)NC(=O)[C@H](C(C)C)NC(=O)[C@@H]3CCCN3C(=O)[C@H](CCC(N)=O)NC(=O)[C@H](Cc3ccc(O)cc3)NC1=O)C(=O)N[C@@H](CCC(=O)O)C(=O)N[C@@H](CCSC)C(=O)N[C@@H](CCC(N)=O)C(=O)N[C@@H](CCCNC(=N)N)C(=O)N[C@@H](C)C(=O)N[C@@H](CCCNC(=N)N)C(=O)N[C@H](C(=O)N[C@@H](CC(C)C)C(=O)N[C@@H](CCCNC(=N)N)C(=O)NCC(=O)O)CSSC[C@H](N)C(=O)N1CCC[C@H]1C(=O)N[C@@H](CCC(N)=O)C(=O)N[C@@H](C)C(=O)N2` [V4A] (H-CPQACPAIYQPVFDEFGRMYSNSCEMQRARCLRG-OH; disulfide 1-31, 5-24) belongs 0.0132 µM. To `CC[C@H](C)[C@@H]1NC(=O)[C@H](C)NC(=O)[C@@H]2CCCN2C(=O)[C@@H]2CSSC[C@H](NC(=O)[C@H](CO)NC(=O)[C@H](CC(N)=O)NC(=O)[C@H](CO)NC(=O)[C@H](Cc3ccc(O)cc3)NC(=O)[C@H](CCSC)NC(=O)[C@H](CCCNC(=N)N)NC(=O)CNC(=O)[C@H](Cc3ccccc3)NC(=O)[C@H](CCC(=O)O)NC(=O)[C@H](CC(=O)O)NC(=O)[C@H](Cc3ccccc3)NC(=O)[C@H](C(C)C)NC(=O)[C@@H]3CCCN3C(=O)[C@H](CCC(N)=O)NC(=O)[C@H](Cc3ccc(O)cc3)NC1=O)C(=O)N[C@@H](C)C(=O)N[C@@H](CCSC)C(=O)N[C@@H](CCC(N)=O)C(=O)N[C@@H](CCCNC(=N)N)C(=O)N[C@@H](C)C(=O)N[C@@H](CCCNC(=N)N)C(=O)N[C@H](C(=O)N[C@@H](CC(C)C)C(=O)N[C@@H](CCCNC(=N)N)C(=O)NCC(=O)O)CSSC[C@H](N)C(=O)N1CCC[C@H]1C(=O)N[C@@H](CCC(N)=O)C(=O)N[C@@H](C(C)C)C(=O)N2` [E25A] (H-CPQVCPAIYQPVFDEFGRMYSNSCAMQRARCLRG-OH; disulfide 1-31, 5-24) belongs over 1000 µM.

`CC[C@H](C)[C@@H]1NC(=O)[C@H](C)NC(=O)[C@@H]2CCCN2C(=O)[C@@H]2CSSC[C@H](NC(=O)[C@H](CO)NC(=O)[C@H](CC(N)=O)NC(=O)[C@H](CO)NC(=O)[C@H](Cc3ccc(O)cc3)NC(=O)[C@H](CCSC)NC(=O)[C@H](CCCNC(=N)N)NC(=O)CNC(=O)[C@H](Cc3ccccc3)NC(=O)[C@H](CCC(=O)O)NC(=O)[C@H](CC(=O)O)NC(=O)[C@H](Cc3ccccc3)NC(=O)[C@H](C(C)C)NC(=O)[C@@H]3CCCN3C(=O)[C@H](C)NC(=O)[C@H](Cc3ccc(O)cc3)NC1=O)C(=O)N[C@@H](CCC(=O)O)C(=O)N[C@@H](CCSC)C(=O)N[C@@H](CCC(N)=O)C(=O)N[C@@H](CCCNC(=N)N)C(=O)N[C@@H](C)C(=O)N[C@@H](CCCNC(=N)N)C(=O)N[C@H](C(=O)N[C@@H](CC(C)C)C(=O)N[C@@H](CCCNC(=N)N)C(=O)NCC(=O)O)CSSC[C@H](N)C(=O)N1CCC[C@H]1C(=O)N[C@@H](CCC(N)=O)C(=O)N[C@@H](C(C)C)C(=O)N2` [Q10A] (H-CPQVCPAIYAPVFDEFGRMYSNSCEMQRARCLRG-OH; disulfide 1-31, 5-24): the Ki stood at 0.0136 µM. Take `CC[C@H](C)[C@@H]1NC(=O)[C@H](C)NC(=O)[C@@H]2CCCN2C(=O)[C@@H]2CSSC[C@H](NC(=O)[C@H](CO)NC(=O)[C@H](CC(N)=O)NC(=O)[C@H](CO)NC(=O)[C@H](Cc3ccc(O)cc3)NC(=O)[C@H](CCSC)NC(=O)[C@H](CCCNC(=N)N)NC(=O)CNC(=O)[C@H](Cc3ccccc3)NC(=O)[C@H](CCC(=O)O)NC(=O)[C@H](CC(=O)O)NC(=O)[C@H](Cc3ccccc3)NC(=O)[C@H](C(C)C)NC(=O)[C@@H]3CCCN3C(=O)[C@H](CCC(N)=O)NC(=O)[C@H](Cc3ccc(O)cc3)NC1=O)C(=O)N[C@@H](CCC(=O)O)C(=O)N[C@@H](CCSC)C(=O)N[C@@H](CCC(N)=O)C(=O)N[C@@H](CCCNC(=N)N)C(=O)N[C@@H](C)C(=O)N[C@@H](CCCNC(=N)N)C(=O)N[C@H](C(=O)N[C@@H](CC(C)C)C(=O)N[C@@H](CCCNC(=N)N)C(=O)NCC(=O)O)CSSC[C@H](N)C(=O)N[C@@H](C)C(=O)N[C@@H](CCC(N)=O)C(=O)N[C@@H](C(C)C)C(=O)N2` [P2A] (H-CAQVCPAIYQPVFDEFGRMYSNSCEMQRARCLRG-OH; disulfide 1-31, 5-24): affinity was put at a Ki of 0.101 µM. To `CC[C@H](C)[C@@H]1NC(=O)[C@H](C)NC(=O)[C@H](C)NC(=O)[C@@H]2CSSC[C@H](NC(=O)[C@H](CO)NC(=O)[C@H](CC(N)=O)NC(=O)[C@H](CO)NC(=O)[C@H](Cc3ccc(O)cc3)NC(=O)[C@H](CCSC)NC(=O)[C@H](CCCNC(=N)N)NC(=O)CNC(=O)[C@H](Cc3ccccc3)NC(=O)[C@H](CCC(=O)O)NC(=O)[C@H](CC(=O)O)NC(=O)[C@H](Cc3ccccc3)NC(=O)[C@H](C(C)C)NC(=O)[C@@H]3CCCN3C(=O)[C@H](CCC(N)=O)NC(=O)[C@H](Cc3ccc(O)cc3)NC1=O)C(=O)N[C@@H](CCC(=O)O)C(=O)N[C@@H](CCSC)C(=O)N[C@@H](CCC(N)=O)C(=O)N[C@@H](CCCNC(=N)N)C(=O)N[C@@H](C)C(=O)N[C@@H](CCCNC(=N)N)C(=O)N[C@H](C(=O)N[C@@H](CC(C)C)C(=O)N[C@@H](CCCNC(=N)N)C(=O)NCC(=O)O)CSSC[C@H](N)C(=O)N1CCC[C@H]1C(=O)N[C@@H](CCC(N)=O)C(=O)N[C@@H](C(C)C)C(=O)N2` [P6A] (H-CPQVCAAIYQPVFDEFGRMYSNSCEMQRARCLRG-OH; disulfide 1-31, 5-24) belongs 0.105 µM; to `CC[C@H](C)[C@@H]1NC(=O)[C@H](C)NC(=O)[C@@H]2CCCN2C(=O)[C@@H]2CSSC[C@H](NC(=O)[C@H](CO)NC(=O)[C@H](CC(N)=O)NC(=O)[C@H](CO)NC(=O)[C@H](Cc3ccc(O)cc3)NC(=O)[C@H](CCSC)NC(=O)[C@H](CCCNC(=N)N)NC(=O)CNC(=O)[C@H](Cc3ccccc3)NC(=O)[C@H](CCC(=O)O)NC(=O)[C@H](CC(=O)O)NC(=O)[C@H](Cc3ccccc3)NC(=O)[C@H](C(C)C)NC(=O)[C@@H]3CCCN3C(=O)[C@H](CCC(N)=O)NC(=O)[C@H](C)NC1=O)C(=O)N[C@@H](CCC(=O)O)C(=O)N[C@@H](CCSC)C(=O)N[C@@H](CCC(N)=O)C(=O)N[C@@H](CCCNC(=N)N)C(=O)N[C@@H](C)C(=O)N[C@@H](CCCNC(=N)N)C(=O)N[C@H](C(=O)N[C@@H](CC(C)C)C(=O)N[C@@H](CCCNC(=N)N)C(=O)NCC(=O)O)CSSC[C@H](N)C(=O)N1CCC[C@H]1C(=O)N[C@@H](CCC(N)=O)C(=O)N[C@@H](C(C)C)C(=O)N2` [Y9A] (H-CPQVCPAIAQPVFDEFGRMYSNSCEMQRARCLRG-OH; disulfide 1-31, 5-24), over 1000 µM. To `CC[C@H](C)[C@@H]1NC(=O)[C@H](C)NC(=O)[C@@H]2CCCN2C(=O)[C@@H]2CSSC[C@H](NC(=O)[C@H](CO)NC(=O)[C@H](CC(N)=O)NC(=O)[C@H](CO)NC(=O)[C@H](Cc3ccc(O)cc3)NC(=O)[C@H](CCSC)NC(=O)[C@H](CCCNC(=N)N)NC(=O)CNC(=O)[C@H](Cc3ccccc3)NC(=O)[C@H](CCC(=O)O)NC(=O)[C@H](CC(=O)O)NC(=O)[C@H](Cc3ccccc3)NC(=O)[C@H](C(C)C)NC(=O)[C@@H]3CCCN3C(=O)[C@H](CCC(N)=O)NC(=O)[C@H](Cc3ccc(O)cc3)NC1=O)C(=O)N[C@@H](CCC(=O)O)C(=O)N[C@@H](CCSC)C(=O)N[C@@H](CCC(N)=O)C(=O)N[C@@H](CCCNC(=N)N)C(=O)N[C@@H](C)C(=O)N[C@@H](CCCNC(=N)N)C(=O)N[C@H](C(=O)N[C@@H](CC(C)C)C(=O)N[C@@H](CCCNC(=N)N)C(=O)NCC(=O)O)CSSC[C@H](N)C(=O)N1CCC[C@H]1C(=O)N[C@@H](C)C(=O)N[C@@H](C(C)C)C(=O)N2` [Q3A] (H-CPAVCPAIYQPVFDEFGRMYSNSCEMQRARCLRG-OH; disulfide 1-31, 5-24) belongs 0.114 µM.
